In assay [1] the target is CDK1/CycB (Homo sapiens (Human), UniProt P06493). The experiment in a line: CDK1/CycB kinase assay (Assay 1). It counts as biochemical. The following applies: read-out: CDK1/CycB (Assay 1) Concentration of the half-maximal inhibition of the enzyme activity, IC50.
Experimental: CDK1/CycB (200 ng/measuring point) was incubated for 10 min at 22° C. in the presence of different concentrations of test substances (0 and within the range 0.001-10 μM) in assay buffer [50 mM Tris/HCl pH 8.0; 10 mM MgCl2; 0.1 mM Na ortho-vanadate; 1.0 mM dithiothreitol; 0.5 μM adenosine trisphosphate (ATP); 10 μg/measuring point histone IIIS; 0.2 μCi/measuring point ^33P-gamma ATP; 0.05% NP40; 1.25% dimethyl sulphoxide]. The reaction was stopped by adding EDTA solution (250 mM; pH 8.0; 15 μl/measuring point).
From each reaction mixture, 15 μl were applied to P30 filter strips (Wallac), and unincorporated ^33P-ATP was removed by washing the filter strips three times, for 10 min in each case, in 0.5% phosphoric acid. After drying the filter strips for 1 hour at 70°, the filter strips were covered with scintillator strips (MeltiLex™ A, Wallac) and stoved for 1 hour at 90° C. The amount of incorporated ^33P (substrate phosphorylation) was determined by scintillation measurement in a gamma-radiation measuring instrument (Wallac). […] The IC50 values were determined by means of a 4-parameter fit using the company's own software.
Assay [2] concerns DU 145, hormone-independent human prostrate carcinoma cells. In words: Proliferation assay (Assay 5), DU145. The assay is classed as cell-based. As to conditions: DU-145, 96 h, DU145, 4 days, read-out: Concentration of the half-maximal inhibition of the cell proliferation, IC50. From the text:
(§1) Cultivated human tumour cells (MCF7, hormone-independent human breast carcinoma cells, acquired from ATCC HTB22; NCI-H460, human non-small-cell lung carcinoma cells, ATCC HTB-177; DU 145, hormone-independent human prostrate carcinoma cells, ATCC HTB-81; HeLa-MaTu, human cervix carcinoma cells, EPO-GmbH, Berlin; HeLa-MaTu-MDR, multiple drug-resistant human cervix carcinoma cells, EPO-GmbH, Berlin; Caco-2, human colon carcinoma cells, ATCC HTB-37; B16F10, murine melanoma cell, ATCC CRL-6475) were plated out at a density of ca. 1000-5000 cells/measuring point, depending on the growth rate of the particular cells, in a 96-well multititre plate in 200 μl of the corresponding growth medium. After 24 hours, the cells of one plate (zero-point plate) were stained with crystal violet (see below), whereas the medium of the other plates was replaced with fresh culture medium (200 μl), to which the test substances had been added at different concentrations (0 μM, and in the range 0.003-3 μM; the final concentration of the solvent dimethyl sulphoxide was 0.5%). The cells were incubated for 4 days in the presence of the test substances. Cell proliferation was determined by staining the cells with crystal violet: the cells were fixed by adding 20 μl/measuring point of an 11% glutaraldehyde solution for 15 min at room temperature. After washing the fixed cells with water three times, the plates were dried at room temperature. The cells were stained by adding 100 μl/measuring point of a 0.1% crystal violet solution (pH adjusted to pH 3 by adding acetic acid). After washing the stained cells with water three times, the plates were dried at room temperature. The dye was dissolved by adding 100 μl/measuring point of a 10% acetic acid solution. The extinction was determined photometrically at a wavelength of 595 nm. […] The IC50 values were determined by means of a 4-parameter fit using the company's own software.

For assay [3], the system named is Caco-2, human colon carcinoma cells. The experiment in a line: Proliferation assay (Assay 5), Caco-2. The following applies: 96 h, Caco-2, 4 days, read-out: Concentration of the half-maximal inhibition of the cell proliferation, IC50. It counts as cell-based.
Excerpt: as §1

The subject of assay [4] is MCF7, hormone-independent human breast carcinoma cells. The experiment in a line: Proliferation assay (Assay 5), MCF7. The following applies: read-out: Concentration of the half-maximal inhibition of the cell proliferation, IC50. It counts as cell-based.
Excerpt: as §1

Assay [5] deals with CDK2/CycE (Homo sapiens (Human), UniProt P24941). The experiment in a line: CDK2/CycE kinase assay (Assay 2). The assay is classed as biochemical. The following applies: read-out: CDK2/CycE (Assay 2) Concentration of the half-maximal inhibition of the enzyme activity, IC50.
Experimental: Recombinant CDK2 and CycE-GST fusion proteins, purified from baculovirus-infected insect cells (Sf9), were purchased from ProQinase GmbH, Freiburg. Histone IIIS, which was used as kinase substrate, was purchased from Sigma.
CDK2/CycE (50 mg/measuring point) was incubated for 10 min at 22° C. in the presence of different concentrations of test substances (0 μM, and within the range 0.001-10 μM) in assay buffer [50 mM Tris/HCl pH 8.0; 10 mM MgCl2; 0.1 mM Na ortho-vanadate; 1.0 mM dithiothreitol; 0.5 μM adenosine trisphosphate (ATP); 10 μg/measuring point histone IIIS; 0.2 μCi/measuring point ^33P-gamma ATP; 0.05% NP40; 1.25% dimethyl sulphoxide]. The reaction was stopped by adding EDTA solution (250 mM; pH 8.0; 15 μl/measuring point).
(§2) From each reaction mixture, 15 μl were applied to P30 filter strips (Wallac), and unincorporated ^33P-ATP was removed by washing the filter strips three times, for 10 min in each case, in 0.5% phosphoric acid. After drying the filter strips for 1 hour at 70° C., the filter strips were covered with scintillator strips (MeltiLex™ A, Wallac) and stoved for 1 hour at 90° C. The amount of incorporated ^33P (substrate phosphorylation) was determined by scintillation measurement in a gamma-radiation measuring instrument (Wallac). […] The IC50 values were determined by means of a 4-parameter fit using the company's own software.
Assay [6] deals with NCI-H460, human non-small-cell lung carcinoma cells. The experiment in a line: Proliferation assay (Assay 5), NCI-H460. It counts as cell-based. As to conditions: 96 h, NCI-H460, 4 days, read-out: Concentration of the half-maximal inhibition of the cell proliferation, IC50.
Excerpt: as §1

For assay [7], the target named is CDK4/CycD1 (Homo sapiens (Human), UniProt P11802). In words: CDK4/CycD kinase assay (Assay 3). As to conditions: read-out: CDK4/CycD (Assay 3) Concentration of the half-maximal inhibition of the enzyme activity, IC50. The assay is classed as biochemical. As to the method: Recombinant CDK4 and CycD1-GST fusion proteins, purified from baculovirus-infected insect cells (Sf9), were purchased from ProQinase GmbH, Freiburg. CDK4/CycD1 (250 ng/measuring point) was incubated for 3 hours at 22° C. in the presence of different concentrations of test substances (0 μM, and within the range 0.001-10 μM) in 31 μl of assay buffer [50 mM Hepes pH 7.0; 2.5 mM MnCl; 0.05 mM Na ortho-vanadate; 1.0 mM dithiothreitol; 0.25 μM adenosine trisphosphate (ATP); 0.5 μM biotinylated myelin basic protein (bio-MPB, GE Healthcare); 0.05 μCi/measuring point ^33P-gamma ATP; 0.005% NP40; 0.025% bovine serum albumin; 3% dimethyl sulphoxide]. The reaction was stopped by adding 50 μl of stop-mix [100 μM ATP; 10 mM EDTA pH 8.0; 0.2% Triton X100; 0.125 mg of streptavidin-SPA Beads (GE Healthcare)]. After incubation for 10 min at room temperature, the SPA beads were pelleted by centrifugation (10 min; 1500 g). The amount of incorporated ^33P (substrate phosphorylation) was determined by scintillation measurement in a beta-radiation measuring instrument (Microbeta, Perkin Elmer).
Sequence of CDK4/CycD1 (P11802 whole entry, the tested form may be a part): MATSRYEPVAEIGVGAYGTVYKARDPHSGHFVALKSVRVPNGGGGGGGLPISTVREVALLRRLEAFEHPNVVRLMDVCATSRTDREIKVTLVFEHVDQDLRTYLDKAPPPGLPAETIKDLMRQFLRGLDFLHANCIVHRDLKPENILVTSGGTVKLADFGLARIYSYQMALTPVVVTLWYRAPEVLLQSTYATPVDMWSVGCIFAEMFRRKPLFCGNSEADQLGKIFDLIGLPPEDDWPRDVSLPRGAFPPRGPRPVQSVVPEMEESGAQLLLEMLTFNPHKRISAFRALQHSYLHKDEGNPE
Sequence of CDK4/CycD1 (P24385 whole entry partner, the tested form may be a part): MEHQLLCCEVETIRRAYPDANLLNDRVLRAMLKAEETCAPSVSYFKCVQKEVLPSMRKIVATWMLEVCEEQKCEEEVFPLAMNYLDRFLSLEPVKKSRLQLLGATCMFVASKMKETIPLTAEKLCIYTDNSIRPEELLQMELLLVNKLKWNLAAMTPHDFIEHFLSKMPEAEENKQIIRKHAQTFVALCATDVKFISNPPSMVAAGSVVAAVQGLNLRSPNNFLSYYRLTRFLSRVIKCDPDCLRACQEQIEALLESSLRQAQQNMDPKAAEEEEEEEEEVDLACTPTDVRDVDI

Assay [8] concerns B16F10, murine melanoma cell. The experiment in a line: Proliferation assay (Assay 5), B16F10. The following applies: Mus musculus, B16-F10, 96 h; B16F10, 4 days; read-out: Concentration of the half-maximal inhibition of the cell proliferation, IC50. The assay is classed as cell-based.
Excerpt: as §1

The target of assay [9] is VEGF receptor tyrosine kinase-2 (VEGF-R2) (Homo sapiens (Human), UniProt P35968). The experiment in a line: VEGF receptor-2 kinase assay (Assay 4). The assay is classed as biochemical. As to conditions: read-out: VEGF-R2 (Assay 4) Concentration of the half-maximal inhibition of the enzyme activity, IC50.
Sequence of VEGF receptor tyrosine kinase-2 (VEGF-R2) (P35968 20-1356, species assumed): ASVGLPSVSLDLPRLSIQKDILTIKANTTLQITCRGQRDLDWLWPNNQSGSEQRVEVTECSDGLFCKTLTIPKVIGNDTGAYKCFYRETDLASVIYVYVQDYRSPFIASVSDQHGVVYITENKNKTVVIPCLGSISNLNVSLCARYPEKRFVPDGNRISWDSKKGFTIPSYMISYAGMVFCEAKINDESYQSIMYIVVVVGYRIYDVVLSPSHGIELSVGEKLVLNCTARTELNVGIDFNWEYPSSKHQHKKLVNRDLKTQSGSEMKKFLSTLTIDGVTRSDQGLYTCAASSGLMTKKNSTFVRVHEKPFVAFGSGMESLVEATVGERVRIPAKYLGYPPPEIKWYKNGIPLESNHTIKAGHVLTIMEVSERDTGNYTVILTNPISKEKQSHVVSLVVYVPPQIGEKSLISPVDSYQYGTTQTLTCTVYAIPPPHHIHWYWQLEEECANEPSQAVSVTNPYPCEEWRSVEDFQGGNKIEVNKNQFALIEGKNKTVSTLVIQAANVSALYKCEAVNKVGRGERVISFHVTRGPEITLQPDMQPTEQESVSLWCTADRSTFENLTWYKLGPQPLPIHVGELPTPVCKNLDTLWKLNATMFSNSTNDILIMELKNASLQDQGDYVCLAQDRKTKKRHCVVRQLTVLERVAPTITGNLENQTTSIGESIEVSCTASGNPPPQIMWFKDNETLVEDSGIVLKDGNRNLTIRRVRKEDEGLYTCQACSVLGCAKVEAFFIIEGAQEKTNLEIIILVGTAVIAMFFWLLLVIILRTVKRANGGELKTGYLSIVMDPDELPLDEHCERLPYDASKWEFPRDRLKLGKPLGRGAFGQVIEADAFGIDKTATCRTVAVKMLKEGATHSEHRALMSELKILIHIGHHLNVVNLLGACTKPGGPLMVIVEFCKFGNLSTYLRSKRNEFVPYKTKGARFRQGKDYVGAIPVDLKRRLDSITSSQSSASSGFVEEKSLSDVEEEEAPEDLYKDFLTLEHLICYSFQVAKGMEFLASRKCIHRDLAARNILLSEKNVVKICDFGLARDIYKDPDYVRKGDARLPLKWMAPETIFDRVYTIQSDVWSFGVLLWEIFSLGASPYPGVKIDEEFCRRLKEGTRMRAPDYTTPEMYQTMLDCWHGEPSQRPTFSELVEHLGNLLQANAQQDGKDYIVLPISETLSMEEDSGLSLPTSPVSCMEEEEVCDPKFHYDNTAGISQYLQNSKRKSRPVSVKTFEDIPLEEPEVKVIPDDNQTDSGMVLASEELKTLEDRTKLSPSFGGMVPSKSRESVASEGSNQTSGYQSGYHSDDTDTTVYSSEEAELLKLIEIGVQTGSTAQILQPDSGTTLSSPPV
Experimental: Recombinant VEGF receptor tyrosine kinase-2 was purified as GST fusion protein from baculovirus-infected insect cells (Sf9). Poly-(Glu4Tyr), which was used as kinase substrate, was purchased from Sigma.
VEGF receptor tyrosine kinase (90 ng/measuring point) was incubated for 10 min at 22° C. in the presence of different concentrations of test substances (0 μM, and within the range 0.001-10 μM) in 30 μl of assay buffer [40 mM Tris/HCl pH 5.5; 10 mM MgCl2; 1 mM MnCl2; 3 μM Na ortho-vanadate; 1.0 mM dithiothreitol; 8 μM adenosine trisphosphate (ATP); 0.96 μg/measuring point poly-(Glu4Tyr); 0.2 μCi/measuring point ^33P-gamma ATP; 1.4% dimethyl sulphoxide]. The reaction was stopped by adding EDTA solution (250 mM; pH 8.0; 15 μl/measuring point).
as §2
Assay [10] deals with HeLa-MaTu-ADR (HeLa-MaTu-MDR, multiple drug-resistant human cervix carcinoma cells). The experiment in a line: Proliferation assay (Assay 5), HeLa-MaTu-ADR. The assay is classed as cell-based. The following applies: 96 h, HeLa-MaTu-ADR, 4 days, read-out: Concentration of the half-maximal inhibition of the cell proliferation, IC50.
Excerpt: as §1

Read-outs that look alike come from different tables or passages of the source.

Sequence of CDK1/CycB (P06493 whole entry): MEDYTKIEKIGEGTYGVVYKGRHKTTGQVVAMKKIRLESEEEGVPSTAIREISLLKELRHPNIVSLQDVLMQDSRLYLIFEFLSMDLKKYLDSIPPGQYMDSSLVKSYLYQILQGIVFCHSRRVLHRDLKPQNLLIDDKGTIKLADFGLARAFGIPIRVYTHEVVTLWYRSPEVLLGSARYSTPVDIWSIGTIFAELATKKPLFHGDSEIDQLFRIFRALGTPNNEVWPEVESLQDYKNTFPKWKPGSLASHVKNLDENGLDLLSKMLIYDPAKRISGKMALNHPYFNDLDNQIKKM
Sequence of CDK1/CycB (P14635 whole entry partner): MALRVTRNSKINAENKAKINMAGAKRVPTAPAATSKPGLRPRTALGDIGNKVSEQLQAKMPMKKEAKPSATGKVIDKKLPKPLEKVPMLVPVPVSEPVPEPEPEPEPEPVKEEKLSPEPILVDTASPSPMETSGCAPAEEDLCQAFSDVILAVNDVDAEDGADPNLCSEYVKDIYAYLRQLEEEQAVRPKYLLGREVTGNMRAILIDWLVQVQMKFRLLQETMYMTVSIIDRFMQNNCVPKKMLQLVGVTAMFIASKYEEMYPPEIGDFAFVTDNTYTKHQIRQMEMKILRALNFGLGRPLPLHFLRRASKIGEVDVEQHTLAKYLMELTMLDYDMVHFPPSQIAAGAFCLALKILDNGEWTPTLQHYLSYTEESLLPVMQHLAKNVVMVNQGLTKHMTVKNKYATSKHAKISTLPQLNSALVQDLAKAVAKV

`C[C@@H](Nc1nc(Nc2ccc(S(C)(=O)=O)cc2)ncc1C(F)(F)F)C(C)(C)O` [C3, (R)-3-[2-(4-Methanesulphonylphenylamino) 5-trifluoro-methylpyrimidin-4-ylamino]-2-methylbutan-2-ol, reference compound]: the IC50 in [1] was 9 nM; in [2] it was 60 nM; in assay [3], 133 nM; in assay [4] (96 h, MCF7, 4 days), 61 nM; in assay [5], 8 nM; in [6], 93 nM. In addition, the IC50 in assay [7] was 24 nM; in [8], 106 nM; in assay [9], 190 nM; in assay [10], 37 nM.
As for `C[C@@H](Oc1nc(Nc2ccc(S(=O)(=O)C3CC3)cc2)ncc1C(F)(F)F)C(C)(C)O` [Example 4, (R)-3-[2-(4-Cyclopropanesulphonylphenylamino)-5-tri-fluoromethylpyrimidin-4-yloxy]-2-methylbutan-2-ol], the IC50 in assay [1] was found to be 36 nM; in assay [2], 194 nM; in assay [3] it was 205 nM; in assay [4] (96 h, MCF7, 4 days), 105 nM; in assay [5], 21 nM; in [6] it was 226 nM. For the same compound, the IC50 in [8] was 287 nM; in assay [10], 142 nM.
Consider `C[C@@H](O)[C@@H](C)Oc1nc(Nc2ccc(S(=O)(=O)c3ccccc3)cc2)ncc1C(F)(F)F` [Example 5, (2R,3R)-3-[2-(4-Benzenesulphonylphenylamino)-5-tri-fluoromethylpyrimidin-4-yloxy]butan-2-ol], for which the figures for the IC50 in [1] and in assay [5] were 41 nM and 36 nM, respectively.
The matching figures for `C[C@@H](O)[C@@H](C)Oc1nc(Nc2ccc(S(=O)(=O)C(F)F)cc2)ncc1C(F)(F)F` [Example 6, (2R,3R)-3-{2-[4-(Difluoromethanesulphonyl)phenylamino]-5-trifluoromethylpyrimidin-4-yloxy}butan-2-ol]: 24 nM and 12 nM.
`C[C@@H](O)[C@@H](C)Oc1nc(Nc2ccc(S(=O)(=O)C3CCCC3)cc2)ncc1C(F)(F)F` [Example 7, (2R,3R)-3-[2-(4-Cyclopentanesulphonylphenylamino)-5-triluoromethylpyrimidin-4-yloxy]butan-2-ol]: the IC50 in assay [1] came to 23 nM; in assay [5], 21 nM.
As to `C=CCS(=O)(=O)c1ccc(Nc2ncc(C(F)(F)F)c(O[C@H](C)C(C)(C)O)n2)cc1` [Example 8, (R)-2-Methyl-3-{2-[4-(prop-2-ene-1-sulphonyl)phenylamino]-5-trifluoromethylpyrimidin-4-yl-oxy}butan-2-ol], the IC50 in assay [1] is 43 nM; in [5] it was 11 nM.
For `CC(C)S(=O)(=O)c1ccc(Nc2ncc(C(F)(F)F)c(O[C@H](C)[C@@H](C)O)n2)cc1` [Example 9, (2R,3R)-3-{2-[4-(Propane-2-sulphonyl)phenylamino]-5-trifluoromethylpyrimidin-4-yloxy}butan-2-ol], the IC50 in assay [1] came out at 12 nM; in assay [5], 6 nM.
The matching figures for `C#CCS(=O)(=O)c1ccc(Nc2ncc(C(F)(F)F)c(O[C@H](C)C(C)(C)O)n2)cc1` [Example 10, (R)-2-Methyl-3-{2-[4-(prop-2-yne-1-sulphonyl)phenylamino]-5-trifluoromethylpyrimidin-4-yloxy}butan-2-ol]: 82 nM and 43 nM.
For `C[C@@H](O)[C@@H](C)Oc1nc(Nc2ccc(S(=O)(=O)CCO)cc2)ncc1C(F)(F)F` [Example 11, (2R,3R)-3-{2-[4-(2-Hydroxyethanesulphonyl)phenylamino]-5-trifluoromethylpyrimidin-4-yloxy}butan-2-ol], the IC50 in assay [1] and in assay [5] was 3 nM throughout.
For `COC[C@@H](C)Oc1nc(Nc2ccc(S(C)(=O)=O)cc2)ncc1C(F)(F)F` [Example 12, (4-Methanesulphonylphenyl) [4-((R)-2-methoxy-1-methyl-ethoxy)-5-trifluoromethylpyrimidin-2-yl]amine], the IC50 in assay [1] is 51 nM; in assay [4] (96 h, MCF7, 4 days) it was 191 nM; in [5] it was 12 nM.
In the case of `C#CCOc1nc(Nc2ccc(S(C)(=O)=O)cc2)ncc1C(F)(F)F` [Example 13, (4-Methanesulphonylphenyl)(4-prop-2-ynyloxy-5-trifluoromethylpyrimidin-2-yl)amine], the IC50 was 130 nM in assay [1]; 740 nM in [4] (MCF7, 96 h); 25 nM in assay [5].
The like results for `CS(=O)(=O)c1ccc(Nc2ncc(C(F)(F)F)c(OCCC(F)(F)F)n2)cc1` [Example 14, (4-Methanesulphonylphenyl)[5-trifluoromethyl-4-(3,3,3-trifluoropropoxy)pyrimidin-2-yl]amine] were, in that order, 740 nM, 2200 nM and 94 nM.
On to `C=CCOc1nc(Nc2ccc(S(C)(=O)=O)cc2)ncc1C(F)(F)F` [Example 15, (4-Allyloxy-5-trifluoromethylpyrimidin-2-yl)(4-methane-sulphonylphenyl)amine], for which the IC50 in assay [1] turned out to be 280 nM; in assay [4] (96 h, MCF7, 4 days), 1500 nM; in assay [5], 49 nM.
In the case of `CS(=O)(=O)c1ccc(Nc2ncc(C(F)(F)F)c(OC3CCCCC3)n2)cc1` [Example 16, (4-Cyclohexyloxy-5-trifluoromethylpyrimidin-2-yl)(4-methanesulphonylphenyl)amine], the IC50 was above 1000 nM in assay [1]; 1400 nM in assay [4] (96 h, MCF7, 4 days); 480 nM in [5].

The values above are taken from US8802686B2, “Sulfone-substituted anilinopyrimidine derivatives as CDK inhibitors, the production thereof, and use as a medicine” (Bayer Intellectual Property GmbH, priority 2008, dated 2014).
